Values of other authors in patent US20120289567A1, “COMBINATIONS OF DARIFENACIN AND SALIVARY STIMULANTS FOR THE TREATMENT OF OVERACTIVE BLADDER” (THERAVIDA, INC., priority 2011, published 2012).

Conditions: 5 mg of pilocarpine

In the case of CC[C@@H]1C(=O)OC[C@@H]1Cc1cncn1C [pilocarpine], the “time of maximum saliva output after administration” value is given as “about 30 minutes”.
